Experimental data published in patent US11311613B2, “Development of agonist epitopes of the human papillomavirus” (priority 2016, dated 2022).
“Also recorded” adds a separate entry of the source. Read-outs that look alike come from different tables or passages of the source.

Columns and labels:
HLA-A2 molecules = molecular target: T1, HLA-A2 molecules (Homo sapiens, UniProt P04439, D140Y/D185E/D98H/E176V/E277Q/G131W/G231S/I119V/I121R/I166T/I218V/L300P/L318F/N151K/N90K/P208A/P217A/Q86G/Q94H/R138H/R169H/T345S); assay: T2A2 binding of HPV-16 E6/E7 peptides to HLA-A2; set-up: T2A2 Binding: unit not given here
T1 construct: endogenous in cells; host or cells: T2A2 cells (T2 cell line expressing HLA-A2; only the column head names it)

CTL (T cells) = assay: IFN-γ production by CTL stimulated by autologous B cells pulsed with corresponding peptide; assay type: cell-based, human; set-up: key to IFN-γ: + denotes a greater level than the native epitope; = denotes the same level as the native epitope; − denotes a lower level than the native epitope; conditions: for interferon production (in words): T cells stimulated by peptide-pulsed autologous B cells
Source text: Autologous B cells were pulsed with each native and agonist E6 peptides to stimulate production of interferon by T cells.
Autologous B cells were pulsed with each native and agonist E7 peptides to stimulate production of interferon by T cells.

[1] = system: CaSki cervical carcinoma cell line (HPV16 E6 and E7 positive HLA-A2 positive); assay: Lysis of CaSki tumor cells by peptide-specific CTLs; assay type: cell-based, human; set-up: key to Lysis: + denotes a greater level than the native epitope; = denotes the same level as the native epitope; − denotes a lower level than the native epitope; conditions: for % specific lysis (SD), CaSki (HLA-A2+ HPV E6+ and E7+): CTLs at IVS5, effector-to-target ratio 25:1; for Lysis: level compared with the native epitope; for lysis of CaSki cervical carcinoma cells (in words): compared to T cells generated with the native epitope counterpart
Source text: (§1) HPV-specific T cells were generated using infection of dendritic cells (DCs) with Ad-HPV followed by stimulation of the T cells with each agonist and native peptide. In particular, DCs were infected with Ad5 HPV at 20,000 MOI. Infected DCs were used to generate specific CTLs using autologous PBMC. Autologous DCs were used as APCs for three in vitro stimulations (IVS). Autologous peptide-pulsed B cells were used to re-stimulate antigen-specific CTLs for two additional IVS. CTLs were used at IVS5.
(§2) Results are expressed in % specific lysis (SD). Effector-to-target ratio used was 25:1. CTLs were established from a normal HLA-A2 donor. CaSki is a cervical carcinoma cell line (HPV16 E6 and E7 positive HLA-A2 positive). ASPC-1 is a pancreatic cancer cell line (HPV16 E6 and E7 negative HLA-A2 negative).

[2] = system: ASPC-1 pancreatic cancer cell line (HPV16 E6 and E7 negative HLA-A2 negative); assay: Lysis of ASPC-1 control cells by peptide-specific CTLs; assay type: cell-based, human; conditions: CTLs at IVS5, effector-to-target ratio 25:1; for % specific lysis (SD), ASPC-1 (HLA-A2neg HPV E6neg and E7neg): Table 4; for % specific lysis (SD), ASPC-1: Table 5
Source text: as §1, §2
as §2, with “HN-4 and HN-12 cells are head and neck squamous” for “CaSki is a cervical”, “lines (HLA-A2” for “line (HPV16 E6 and E7 positive HLA-A2”

[3] = system: HPV-specific T cell lines; assay: IFN-γ production by HPV-specific T cell lines stimulated with Ad5-infected human dendritic cells; assay type: cell-based; conditions: for activation of T cells directed against the epitope (in words): human DCs infected with Ad-5[E1,E2b^neg]HPV
Protocol: Human DC (6 day culture in IL-4 and GM-CSF) were infected with Ad5 [E1,E2b]-HPV vector and Ad5 [E1,E2b]-Null at 1×10^5/well (24-well plate) in 0.5 ml of AIM-V. Ad5 vectors were used at 20,000 MOI for 1 hour and then 1.5 ml of AIM-V were added to each well. Infected DCs were incubated for 48 hours and then washed and used for stimulation of human antigen-specific T cells. Results are expressed in pg of IFN-γ per 5×10^5 T cells/ml. DC only=<0.73 pg/ml.

[4] = system: HN-12 head and neck squamous carcinoma cell line (HLA-A2 positive); assay: Lysis of HN-12 cells by peptide-specific CTLs; assay type: cell-based, human; conditions: for % specific lysis (SD), HN-12: CTLs at IVS5, effector-to-target ratio 25:1; for lysis of HN-12 (in words): compared to native counterparts
Source text: as §1
as §2, with “HN-4 and HN-12 cells are head and neck squamous” for “CaSki is a cervical”, “lines (HLA-A2” for “line (HPV16 E6 and E7 positive HLA-A2”

[5] = system: HN-4 head and neck squamous carcinoma cell line (HLA-A2 positive); assay: Lysis of HN-4 cells by peptide-specific CTLs; assay type: cell-based, human; conditions: for % specific lysis (SD), HN-4: CTLs at IVS5, effector-to-target ratio 25:1; for lysis of HN-4 (in words): compared to native counterparts
Source text: as §1
as §2, with “HN-4 and HN-12 cells are head and neck squamous” for “CaSki is a cervical”, “lines (HLA-A2” for “line (HPV16 E6 and E7 positive HLA-A2”

[6] = CTL line stimulated by autologous B cells pulsed with corresponding HPV-16 E7 peptide
[7] = E7 CTL line, autologous B cells with NO peptide
[8] = level compared with the native epitope
[9] = DCs infected with Ad5 [E1,E2b]-HPV (20,000 MOI)
[10] = DCs infected with Ad5 [E1,E2b]-Null (20,000 MOI)
[11] = CTL line stimulated by autologous B cells pulsed with corresponding HPV-16 E6 peptide
[12] = E6 CTL line, autologous B cells with NO peptide

Sequence	T2A2 Binding (HLA-A2 molecules; binding to HLA-A2)	IFN-γ (CTL (T cells); [6]) [pg/mL]	IFN-γ (CTL (T cells); [7]) [pg/mL]	interferon production (in words) (CTL (T cells))	% specific lysis (SD), CaSki (HLA-A2+ HPV E6+ and E7+) [1]	Lysis [1]	% specific lysis (SD), ASPC-1 (HLA-A2neg HPV E6neg and E7neg) [2]	IFN-γ [3, 9]	IFN-γ [3, 10]	IFN-γ ([3]; DCs only (uninfected))	IFN-γ ([3]; No DCs)	% specific lysis (SD), HN-12 [4]	% specific lysis (SD), ASPC-1 [2]	% specific lysis (SD), HN-4 [5]	IFN-γ (CTL (T cells); [11]) [pg/mL]	IFN-γ (CTL (T cells); [12]) [pg/mL]	also measured
TLHEYMLDV [E7-A2]	1,529	95.3	<15.6	low and produced more interferon than the agonist counterpart	41.9 (4.1) %	−	0.6 (1.3) %										HLA-A2 binding (in words) (HLA-A2 molecules): strongest; also recorded: good binding; IFN-γ (CTL (T cells); [8]): −
RTLEDLLMGV [E7-A3]	1,263	840	<15.6	best interferon production	54.5 (7.3) %	+	0.6 (0.1) %	931 pg of IFN-γ per 5×10^5 T cells/ml	<0.73 pg of IFN-γ per 5×10^5 T cells/ml	<0.73 pg of IFN-γ per 5×10^5 T cells/ml	<0.73 pg of IFN-γ per 5×10^5 T cells/ml	41.9 (2.9) %	0.6 (0.7) %	40.2 (1.8) %			HLA-A2 binding (in words) (HLA-A2 molecules): strongest; activation of T cells directed against the epitope (in words) [3]: able to activate; lysis of HN-12 (in words) [4]: more lysis; lysis of CaSki cervical carcinoma cells (in words) [1]: Enhanced lysis; lysis of HN-4 (in words) [5]: more lysis
KISEYRHYC [E6-2, reference compound]					45.1 (2.8) %		0.5 (0.7) %								455	<15.6	
KLPQLCTEV [E6-A1]	1,335			best interferon production	70.8 (10.7) %		-0.2 (6.6) %	683 pg of IFN-γ per 5×10^5 T cells/ml	1.0 pg of IFN-γ per 5×10^5 T cells/ml	<0.73 pg of IFN-γ per 5×10^5 T cells/ml	0.89 pg of IFN-γ per 5×10^5 T cells/ml	49.4 (3.1) %	0.2 (0.9) %	46.2 (1.1) %	699	<15.6	HLA-A2 binding (in words) (HLA-A2 molecules): strongest; activation of T cells directed against the epitope (in words) [3]: able to activate; lysis of HN-12 (in words) [4]: more lysis; lysis of CaSki cervical carcinoma cells (in words) [1]: Enhanced lysis; lysis of HN-4 (in words) [5]: more lysis
TLHEYMLDL [E7-2, reference compound]		475	95.6		59.2 (5.3) %		0.1 (1.0) %										
YMLDLQPET [E7-1, reference compound]	1,105	247	155.6		39.8 (1.7) %		0.4 (0.3) %										
QQYNKPLCDL [E6-3, reference compound]	1,020				38.1 (3.3) %		0.6 (0.2) %	135 pg of IFN-γ per 5×10^5 T cells/ml	58.5 pg of IFN-γ per 5×10^5 T cells/ml	<0.73 pg of IFN-γ per 5×10^5 T cells/ml	<0.73 pg of IFN-γ per 5×10^5 T cells/ml	10.2 (3.8) %	-1.1 (0.7) %	7.0 (0.4) %	338	121	
KLPQLCTEL [E6-1, reference compound]					34.1 (3.6) %		2.4 (0.6) %	114 pg of IFN-γ per 5×10^5 T cells/ml	<0.73 pg of IFN-γ per 5×10^5 T cells/ml	2.17 pg of IFN-γ per 5×10^5 T cells/ml	<0.73 pg of IFN-γ per 5×10^5 T cells/ml	16.5 (1.7) %	0.3 (0.9) %	21.2 (4.4) %	264	<15.6	T2A2 Binding (HLA-A2 molecules): 853
RTLEDLLMGT [E7-3, reference compound]		338	<15.6		49.6 (8.7) %		0.5 (0.1) %	560 pg of IFN-γ per 5×10^5 T cells/ml	70.8 pg of IFN-γ per 5×10^5 T cells/ml	4.24 pg of IFN-γ per 5×10^5 T cells/ml	<0.73 pg of IFN-γ per 5×10^5 T cells/ml	34.6 (3.9) %	1.1 (0.7) %	25.8 (3.5) %			
KISEYRHYV [E6-A2]	877			produced more interferon than the agonist counterpart	24.2 (1.2) %	−	0.2 (0.5) %								172	<15.6	IFN-γ (CTL (T cells); [8]): −
QLYNKPLCDV [E6-A3]	1,280				49.1 (11.9) %	+	0.3 (0.9) %	452 pg of IFN-γ per 5×10^5 T cells/ml	0.78 pg of IFN-γ per 5×10^5 T cells/ml	8.06 pg of IFN-γ per 5×10^5 T cells/ml	0.9 pg of IFN-γ per 5×10^5 T cells/ml	38.4 (7.5) %	0.5 (0.8) %	30.6 (5.3) %	653	<15.6	A2 Binding (HLA-A2 molecules; [8]): +; activation of T cells directed against the epitope (in words) [3]: able to activate; lysis of HN-12 (in words) [4]: more lysis; lysis of CaSki cervical carcinoma cells (in words) [1]: Enhanced lysis; lysis of HN-4 (in words) [5]: more lysis
YMLDLQPEV [E7-A1]	1,171	230	<15.6		27.8 (3.6) %	−	0.9 (0.6) %										IFN-γ (CTL (T cells); [8]): =
